According to the supplement of paper PMC4380931:

What was measured:
Assay in all cases: apoptotic fraction of cells (caspase-3 NucView488 positive); higher = more apoptosis
C32 = system: C32
Procedure: (§1)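 BRAF V600E/D melanoma cell lines were seeded in 96-well plates, treated in 4 replicates with seven doses (3.16 nM to 3.16 uM) of RAF/MEK inhibitors for 24, 48 or 72 h, and stained with Hoechst 33342 (nuclei) and DEVD-NucView488 caspase-3 substrate. Plates were imaged on an Operetta. Relative viability is the cell count normalised to a DMSO-treated control; apoptosis fraction is the fraction of NucView488-positive nuclei.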

COLO858 = system: COLO858
Procedure: as §1

K2 = system: K2
Procedure: as §1

LOXIMVI = system: LOXIMVI
Procedure: as §1

RVH421 = system: RVH421
Procedure: as §1

CCCS(=O)(=O)Nc1ccc(F)c(C(=O)c2c[nH]c3ncc(-c4ccc(Cl)cc4)cc23)c1F [Vemurafenib]
apoptotic fraction of cells
Conditions	0.00316 µM	0.01 µM	0.0316 µM	0.1 µM	0.316 µM	1 µM	3.16 µM
C32, 24 h	0.0798	0.139	0.166	0.186	0.202	0.17	0.309
C32, 48 h	0.11	0.173	0.186	0.127	0.0971	0.407	0.862
C32, 72 h	0.0761	0.0907	0.0843	0.061	0.114	0.658	0.928
COLO858, 24 h	0.0468	0.0448	0.0467	0.0418	0.0538	0.0998	0.151
COLO858, 48 h	0.0487	0.0502	0.048	0.0491	0.0797	0.194	0.453
COLO858, 72 h	0.0879	0.0831	0.0746	0.0587	0.0687	0.25	0.723
K2, 24 h	0.00416	0.00233	0.00265	0.00174	0.00473	0.0444	0.183
K2, 48 h	0.00306	0.00257	0.00173	0.00229	0.0116	0.0823	0.237
LOXIMVI, 24 h	0.0511	0.0524	0.0364	0.0578	0.0383	0.0551	0.0557
LOXIMVI, 48 h	0.103	0.0517	0.0505	0.0455	0.0414	0.0496	0.0897
LOXIMVI, 72 h	0.191	0.153	0.0537	0.0438	0.0484	0.074	0.129
RVH421, 24 h	0.04937	0.0545	0.0463	0.0489	0.0609	0.0547	0.0664
RVH421, 48 h	0.0497	0.0508	0.0538	0.0604	0.0622	0.0737	0.0864
RVH421, 72 h	0.0342	0.0343	0.0341	0.0335	0.0444	0.0453	0.0682

CCCS(=O)(=O)Nc1ccc(F)c(C(=O)c2c[nH]c3ncc(Cl)cc23)c1F [PLX4720]
apoptotic fraction of cells
Conditions	0.00316 µM	0.01 µM	0.0316 µM	0.1 µM	0.316 µM	1 µM	3.16 µM
C32, 24 h	0.0873	0.121	0.119	0.153	0.174	0.245	0.29
C32, 48 h	0.0967	0.159	0.158	0.105	0.143	0.465	0.784
C32, 72 h	0.0846	0.0849	0.0684	0.0354	0.215	0.619	0.813
COLO858, 24 h	0.0469	0.0452	0.0424	0.0482	0.0562	0.108	0.154
COLO858, 48 h	0.0522	0.0523	0.0462	0.0498	0.0785	0.184	0.323
COLO858, 72 h	0.0883	0.0826	0.0717	0.053	0.0842	0.183	0.374
K2, 24 h	0.00502	0.00388	0.00353	0.00321	0.00817	0.0503	0.153
K2, 48 h	0.00236	0.00224	0.00201	0.00525	0.0166	0.0858	0.173
LOXIMVI, 24 h	0.0547	0.0479	0.0396	0.0507	0.033	0.0507	0.0445
LOXIMVI, 48 h	0.111	0.0809	0.0585	0.0482	0.0482	0.0654	0.113
LOXIMVI, 72 h	0.211	0.144	0.074	0.0395	0.048	0.0542	0.159
RVH421, 24 h	0.0586	0.0457	0.0542	0.052	0.0578	0.0478	0.0574
RVH421, 48 h	0.0464	0.062	0.0512	0.05	0.058	0.0593	0.0831
RVH421, 72 h	0.0342	0.035	0.0338	0.0375	0.0466	0.051	0.0617
